Our source for the IC50 values is patent US20250002475A1 (EPICS THERAPEUTICS, priority 2023, published 2025).

Where only a bound is given, the exact number is not on record here.

This experiment addresses T1, recombinant METTL3/METTL14 complex (Homo sapiens, UniProt Q86U44).
T1 construct: purchased Active Motif 311970; host or cells: Sf9 cells
The experiment in a line: METTL3/14 Scintillation Proximity Assay (SPA), RNA methyltransferase activity. It is filed as biochemical. The conditions noted are these: 5.31 nM METTL3/14 complex, 250 nM RNA substrate, 1 μM 3H-SAM, 90 min; for compounds marked * best of the two separated forms. On the technique in general: In a scintillation proximity assay essentially only radioactivity close to the scintillant gives light.

T1 sequence (Q86U44 whole entry): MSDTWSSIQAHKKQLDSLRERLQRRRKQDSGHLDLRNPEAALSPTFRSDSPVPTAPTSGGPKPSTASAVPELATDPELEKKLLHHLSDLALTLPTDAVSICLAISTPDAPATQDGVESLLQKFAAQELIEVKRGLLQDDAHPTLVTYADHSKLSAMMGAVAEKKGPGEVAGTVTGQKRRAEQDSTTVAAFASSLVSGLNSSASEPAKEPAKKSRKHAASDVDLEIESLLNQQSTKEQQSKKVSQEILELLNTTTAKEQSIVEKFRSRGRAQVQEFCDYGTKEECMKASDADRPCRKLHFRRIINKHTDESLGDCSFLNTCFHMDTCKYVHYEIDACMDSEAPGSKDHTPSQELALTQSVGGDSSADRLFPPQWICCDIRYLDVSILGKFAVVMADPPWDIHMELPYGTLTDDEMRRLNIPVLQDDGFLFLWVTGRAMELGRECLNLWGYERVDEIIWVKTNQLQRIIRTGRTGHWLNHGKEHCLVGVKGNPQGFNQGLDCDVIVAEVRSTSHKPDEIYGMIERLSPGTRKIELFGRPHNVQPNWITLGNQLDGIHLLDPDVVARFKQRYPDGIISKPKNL
T1 sequence (Q9HCE5 whole entry partner): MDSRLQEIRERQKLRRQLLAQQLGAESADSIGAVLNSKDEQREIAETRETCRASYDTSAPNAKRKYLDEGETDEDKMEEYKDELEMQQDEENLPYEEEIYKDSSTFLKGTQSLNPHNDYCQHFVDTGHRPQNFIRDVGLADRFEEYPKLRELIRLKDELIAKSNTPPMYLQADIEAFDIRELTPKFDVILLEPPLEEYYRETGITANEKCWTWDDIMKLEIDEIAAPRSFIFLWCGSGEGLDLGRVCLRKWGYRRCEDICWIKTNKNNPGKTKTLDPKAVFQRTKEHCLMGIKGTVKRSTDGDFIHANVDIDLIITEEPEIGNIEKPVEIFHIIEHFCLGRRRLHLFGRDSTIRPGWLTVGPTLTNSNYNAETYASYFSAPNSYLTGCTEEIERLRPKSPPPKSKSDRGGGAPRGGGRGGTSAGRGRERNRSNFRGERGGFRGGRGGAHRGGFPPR

For the molecule `CC(NC(=O)c1cc(=O)n2ccccc2n1)c1ccc(N2CCC[C@@H](NC3CCCC3)C2)cn1` (single isomer, unassigned) [Compound 117], the IC50 was 50 to 500 nM.

As to `COc1cc(C(=O)NCc2ccc(N3CCC[C@@H](NCC4CCC4)C3)nn2)c2cn[nH]c2c1` [Compound 005, (R)-N-((6-(3-((cyclobutylmethyl)amino)piperidin-1-yl)pyridazin-3-yl)methyl)-6-methoxy-1H-indazole-4-carboxamide], the IC50 was in the range of 50 to 500 nM.

Consider `COc1cc(-c2cn(Cc3ncc(N4CCCC(NCC5CCC5)C4)s3)nn2)c2cn[nH]c2c1` (stereo not drawn) [Compound 049, N-(cyclobutylmethyl)-1-(2-((4-(6-methoxy-1H-indazol-4-yl)-1H-1,2,3-triazol-1-yl)methyl)thiazol-5-yl)piperidin-3-amine], for which the IC50 was at most 50 nM.

`COc1cnc(C)c(-c2cn(C(C)n3ccc(N4CCC[C@@H](NCC5CCC5)C4)cc3=O)nn2)c1` (stereo partly drawn) [Compound 114, 4-((R)-3-((cyclobutylmethyl)amino)piperidin-1-yl)-1-(1-(4-(5-methoxy-2-methylpyridin-3-yl)-1H-1,2,3-triazol-1-yl)ethyl)pyridin-2(1H)-one]: the IC50 was at most 50 nM.

With `CNc1cncc(-c2cn(C(C)n3ccc(N4CCC[C@@H](NCC5CCC5)C4)cc3=O)nn2)n1` (stereo partly drawn) [Compound 121, 4-((R)-3-((cyclobutylmethyl)amino)piperidin-1-yl)-1-(1-(4-(6-(methylamino)pyrazin-2-yl)-1H-1,2,3-triazol-1-yl)ethyl)pyridin-2(1H)-one], the IC50 was at most 50 nM.

As for `COc1cncc(NC(=O)C(C)c2ccc(N3CCC[C@@H](NCC4CCC4)C3)nn2)c1` (stereo partly drawn) [Compound 141, 2-(6-((R)-3-((cyclobutylmethyl)amino)piperidin-1-yl)pyridazin-3-yl)-N-(5-methoxypyridin-3-yl)propanamide], the IC50 was 50 to 500 nM.

For the molecule `CC(NC(=O)c1cc(=O)n2ccccc2n1)c1ccc(N2CCC[C@@H](NCC3CCC3)C2)cc1` (stereo partly drawn) [Compound 100, N-(1-(4-((R)-3-((cyclobutylmethyl)amino)piperidin-1-yl)phenyl)ethyl)-4-oxo-4H-pyrido[1,2-a]pyrimidine-2-carboxamide], the IC50 was 50 to 500 nM.

With `CC(C(=O)Nc1cncc(N2CCCC2)c1)c1ccc(N2CCC[C@@H](NCC3CCC3)C2)cn1` (single isomer, unassigned) [Compound 264], the IC50 is at most 50 nM.

With `CC(c1ccc(N2CCC[C@@H](NCC3CCC3)C2)nn1)n1cc(-c2cc(=O)n3cc(Cl)ccc3n2)nn1` (stereo partly drawn) [Compound 090, 7-chloro-2-(1-(1-(6-((R)-3-((cyclobutylmethyl)amino)piperidin-1-yl)pyridazin-3-yl)ethyl)-1H-1,2,3-triazol-4-yl)-4H-pyrido[1,2-a]pyrimidin-4-one], the IC50 is at most 50 nM.

For the molecule `Cn1c(N2CCCC2)cc(-c2cn(C3(c4ccc(N5CCC[C@@H](NCC6CC6)C5)cn4)COC3)nn2)cc1=O` [Compound 314, (R)-4-(1-(3-(5-(3-((cyclopropylmethyl)amino)piperidin-1-yl)pyridin-2-yl)oxetan-3-yl)-1H-1,2,3-triazol-4-yl)-1-methyl-6-(pyrrolidin-1-yl)pyridin-2(1H)-one], the IC50 is at most 50 nM.

As to `CC(C(=O)Nc1cncc(N2CCCC2)c1)c1ccc(N2CCC[C@@H](NCC3CC3)C2)nn1` (stereo partly drawn) [Compound 251, 2-(6-((R)-3-((cyclopropylmethyl)amino)piperidin-1-Yl)pyridazin-3-yl)-N-(5-(pyrrolidin-1-yl)pyridin-3-yl)propanamide], the IC50 was at most 50 nM.

In the case of `COc1cc(-c2cn(Cc3ccc(N4CCC[C@@H](NC5CCOC5)C4)nn3)nn2)c2cn[nH]c2c1` (single isomer, unassigned) [Compound 033], the IC50 was at most 50 nM.

As for `O=C(Cc1ccc(N2CCC[C@@H](NCC3CCC3)C2)cn1)Nc1cncc(N2CCCC2)c1` [Compound 271, (R)-2-(5-(3-((cyclobutylmethyl)amino)piperidin-1-yl)pyridin-2-yl)-N-(5-(pyrrolidin-1-yl)pyridin-3-yl)acetamide], the IC50 is at most 50 nM.

For the molecule `CC(c1ccc(N2CCC[C@@H](NCC3CCC3)C2)cc1)n1cc(-c2cc(=O)n3ccccc3n2)nn1` (stereo partly drawn) [Compound 102], the IC50 is at most 50 nM.

As to `O=C(Nc1cnc2[nH]ccc2c1)C1(c2ccc(N3CCC[C@@H](NCC4CCC4)C3)cn2)COC1` [Compound 299, (R)-3-(5-(3-((cyclobutylmethyl)amino)piperidin-1-yl)pyridin-2-yl)-N-(1H-pyrrolo[2,3-b]pyridin-5-yl)oxetane-3-carboxamide], the IC50 was 50 to 500 nM.

For the molecule `Cc1cc(N2CCC[C@@H](NCC3CC3)C2)cnc1C(C)n1cc(-c2cncc(C3CC3)c2)nn1` (single isomer, unassigned) [Compound 318], the IC50 was at most 50 nM.

On to `O=c1cc(-c2cn(Cc3ccc(N4CCC[C@@H](NCC5CCC5)C4)cn3)nn2)nc2ccccn12` [Compound 127, (R)-2-(1-((5-(3-((cyclobutylmethyl)amino)piperidin-1-yl)pyridin-2-yl)methyl)-1H-1,2,3-triazol-4-yl)-4H-pyrido[1,2-a]pyrimidin-4-one], for which the IC50 was at most 50 nM.

For `CC(c1ccc(N2CCC[C@@H](NCC3CCC3)C2)cn1)n1cc(-c2cc(=O)n3ccccc3n2)nn1` (mixture of isomers) [Compound 099, 2-(1-(1-(5-((R)-3-((cyclobutylmethyl)amino)piperidin-1-yl)pyridin-2-yl)ethyl)-1H-1,2,3-triazol-4-yl)-4H-pyrido[1,2-a]pyrimidin-4-one], the IC50 was at most 50 nM.

In the case of `CC(NC(=O)c1cc(=S)n2ccccc2n1)c1ccc(N2CCC[C@@H](NCC3CCC3)C2)nn1` (single isomer, unassigned) [Compound 110], the IC50 is at most 50 nM.

Regarding `COc1cncc(-c2nnn(C(C)n3ccc(N4CCC[C@@H](NCC5CCC5)C4)cc3=O)n2)c1` (mixture of isomers) [Compound 106, 4-((R)-3-((cyclobutylmethyl)amino)piperidin-1-yl)-1-(1-(5-(5-methoxypyridin-3-yl)-2H-tetrazol-2-yl)ethyl)pyridin-2(1H)-one], the IC50 was at most 50 nM.

On to `CC(n1cc(-c2cccnc2)nn1)n1ccc(N2CCC[C@@H](NCC3CCC3)C2)cc1=O` (stereo partly drawn) [Compound 079, 4-((R)-3-((cyclobutylmethyl)amino)piperidin-1-yl)-1-(1-(4-(pyridin-3-yl)-1H-1,2,3-triazol-1-yl)ethyl)pyridin-2(1H)-one], for which the IC50 was at most 50 nM.

On to `COc1cc(-c2cn(Cc3ccc(N4CCCC(N5CC6(CCC6)C5)C4)nn3)nn2)c2cn[nH]c2c1` (stereo not drawn) [Compound 035, 4-(1-((6-(3-(2-azaspiro[3.3]heptan-2-yl)piperidin-1-yl)pyridazin-3-yl)methyl)-1H-1,2,3-triazol-4-yl)-6-methoxy-1H-indazole], for which the IC50 was at most 50 nM.

For the molecule `COc1cnc(C#N)c(-c2cn(C(C)n3ccc(N4CCC[C@@H](NCC5CCC5)C4)cc3=O)nn2)c1` (single isomer, unassigned) [Compound 109], the IC50 was at most 50 nM.

As to `CC(NC(=O)c1cc(=O)n2ccccc2n1)c1ccc(N2CCC[C@@H](NCC3CC3)C2)cn1` (mixture of isomers) [Compound 112, N-(1-(5-((R)-3-((cyclopropylmethyl)amino)piperidin-1-Yl)pyridin-2-yl)ethyl) -4-oxo-4H-pyrido[1,2-a]pyrimidine-2-carboxamide], the IC50 was at most 50 nM.

With `CNc1ccn2c(=O)cc(C(=O)NC(C)c3ccc(N4CCC[C@@H](NCC5CCC5)C4)nn3)nc2c1` (mixture of isomers) [Compound 091, N-(1-(6-((R)-3-((cyclobutylmethyl)amino)piperidin-1-yl)pyridazin-3-yl)ethyl)-8-(methylamino)-4-oxo-4H-pyrido[1,2-a]pyrimidine-2-carboxamide], the IC50 is at most 50 nM.

As to `Cc1cc(N2CCC[C@@H](NCC3CC3)C2)cc(=O)n1Cn1cc(-c2cncc(N(C)C)c2)nn1` [Compound 163], the IC50 is at most 50 nM.

With `O=C(NCc1ccc(N2CCCC(N3CCC4(CC3)CC4)C2)nn1)c1cc(=O)n2ccccc2n1` (stereo not drawn) [Compound 014, N-((6-(3-(6-azaspiro[2.5]octan-6-yl)piperidin-1-yl)pyridazin-3-yl)methyl)-4-oxo-4H-pyrido[1,2-a]pyrimidine-2-carboxamide], the IC50 fell in the range of 50 to 500 nM.

`CC(C(=O)Nc1cc(=O)n2ccccc2n1)c1ccc(N2CCC[C@@H](NCC3CCC3)C2)cn1` (stereo partly drawn) [Compound 265, 2-(5-((R)-3-((cyclobutylmethyl)amino)piperidin-1-yl)pyridin-2-yl)-N-(4-oxo-4H-pyrido[1,2-a]pyrimidin-2-yl)propanamide]: the IC50 is at most 50 nM.

Consider `COc1cncc(-n2cc(C(C)n3ccc(N4CCC[C@@H](NCC5CCC5)C4)cc3=O)cn2)c1` (mixture of isomers) [Compound 120, 4-((R)-3-((cyclobutylmethyl)amino)piperidin-1-yl)-1-(1-(1-(5-methoxypyridin-3-yl)-1H-pyrazol-4-yl)ethyl)pyridin-2(1H)-one], for which the 50% inhibitory concentration (IC50) is at most 50 nM.

On to `CC(NC(=S)c1cc(=O)n2ccccc2n1)c1ccc(N2CCC[C@@H](NCC3CCC3)C2)nn1` (mixture of isomers) [Compound 111, N-(1-(6-((R)-3-((cyclobutylmethyl)amino)piperidin-1-yl)pyridazin-3-yl)ethyl)-4-oxo-4H-pyrido[1,2-a]pyrimidine-2-carbothioamide], for which the IC50 was in the range of 50 to 500 nM.

In the case of `COc1cncc(-c2noc(C(C)n3ccc(N4CCC[C@@H](NCC5CCC5)C4)cc3=O)n2)c1` (stereo partly drawn) [Compound 125, 4-((R)-3-((cyclobutylmethyl)amino)piperidin-1-yl)-1-(1-(3-(5-methoxypyridin-3-yl)-1,2,4-oxadiazol-5-yl)ethyl)pyridin-2(1H)-one], the IC50 was in the range of 50 to 500 nM.

As to `O=C(NCc1ccc(N2CCC[C@@H](NCC3CCC3)C2)cc1)c1cc(=O)n2ccccc2n1` [Compound 070, (R)-N-(4-(3-((cyclobutylmethyl)amino)piperidin-1-yl)benzyl)-4-oxo-4H-pyrido[1,2-a]pyrimidine-2-carboxamide], the IC50 was at most 50 nM.

As to `CC(n1cnc(-c2cncc(N(C)C)c2)c1)n1ccc(N2CCC[C@@H](NCC3CC3)C2)cc1=O` (single isomer, unassigned) [Compound 266], the IC50 is at most 50 nM.

Usually IC50 stands for the concentration at which inhibition is half-maximal.
